# Assay results taken from patent US7666901B2, “Analogs of 17-hydroxywortmannin as PI3K inhibitors” (Wyeth, priority 2004, dated 2010).
# Columns and labels:
# [1] = test system: LNCaP (human prostate carcinoma); test: Cell proliferation (MTS) assay, LNCaP; assay type: cell-based; conditions: Homo sapiens, LNCaP, 72 h, three days treatment
# Method: (§1) Results of cell proliferation assays for exemplary compounds are shown below in Tables 1 and 2. Cell lines LNCaP (human prostate carcinoma), MDA468 (human breast cancer cell), MDA435 (human breast adenocarcinoma), and DU145 (human prostate carcinoma[…]) were purchased from American Type Culture Collection (ATCC) (Rockville, Md.). Cells were cultured in RPMI Medium 1640 containing 10% fetal bovine serum (FBS) in a 37° C. incubator containing 5% CO2. All cell culture reagents were purchased from Gibco-BRL (Grand Island, N.Y.). Cells were plated in 96-well culture plates at about 3000 cells per well. One day following plating, compounds or vehicle controls (buffer only) were added to cells. Proliferation assays were performed three days post initiation of treatment.
# (§2) For a non-radioactive cell proliferation assay, viable cell densities are determined by measuring metabolic conversion (by viable cells) of the dye MTS tatrazolium dye, a cell proliferation assay known by one of skill in the art (MTS assay), a previously established cell proliferation assay. The assay is performed using an assay kit (Promega Corp., Madison, Wis.). The assay plates are incubated for 1-2 hours, and the results are read in a 96-well format plate reader by measuring absorbance at 490 nm. Effect of each compound is calculated as a percentage of control cell growth obtained from vehicle-treated cells grown in the same plate.
# [2] = test system: phosphor-AKT (S473) in Rat1 cells; test: Rat1-IGF1 assay (IGF-1 induced phospho-AKT immunoblot); assay type: cell-based, rat; conditions: Rattus norvegicus
# Method: Rat1 cells are plated in 6-well culture plates and serum-starved for 24 hours. Serum-starved cells are treated either with control vehicle or with various concentrations of 17-HWT for 2 hours, stimulated by IGF-1 (100 ng/mL) for 30 minutes. Total cellular lysates are prepared using NuPAGE-LDS sample buffer (Invitrogen), sonicated and then clarified by centrifugation. Equal amounts of proteins are subject to immunoblotting analysis using NuPAGE electrophoresis system and probed with phosphor-AKT (S473), total AKT antibodies (Signaling Technology).
# [3] = test system: MDA435 (human breast adenocarcinoma); test: Cell proliferation (MTS) assay, MDA435; assay type: cell-based; conditions: Homo sapiens, MDA435, 72 h, three days treatment
# Method: as §1, §2
# [4] = test system: MDA468 (human breast cancer cell); test: Cell proliferation (MTS) assay, MDA468; assay type: cell-based; conditions: Homo sapiens, 72 h, three days treatment
# Method: as §1, §2
# [5] = molecular target: T1, Human TOR (Homo sapiens, UniProt P42345); test: Human TOR (mTOR) kinase assay, DELFIA format; assay type: biochemical
# T1 construct: FLAG
# Method: The PI3K/AKT/TOR pathway is critical for cell proliferation, growth, survival, and angiogensis. Accordingly, compounds of the present invention may also be useful to inhibit TOR activity. Similar in vivo and in vitro assays to those described above with reference to PI3K can be used to determine the minimum concentration of compound sufficient to inhibit TOR. A human TOR assay and a Rat1-IGF1 assay as described in Examples 67 and 68, respectively was performed with some embodiments of the invention. The results of these assays are shown below in Tables 1 and 2.
# Human TOR assays (See Toral-Barza, et al. Biochem Biophys. Res. Commun. 2005 Jun. 24; 332(1):304-10) with purified enzyme are performed in 96-well plates by DELFIA format as follows. Enzymes are first diluted in kinase assay buffer (10 mM Hepes (pH 7.4), 50 mM NaCl, 50 mM b-glycerophosphate, 10 mM MnCl2, 0.5 mM DTT, 0.25 mM microcystin LR, and […] BSA). To each well, 12 mL of the diluted enzyme is mixed briefly with 0.5 mL test inhibitor or control vehicle dimethylsulfoxide (DMSO). The kinase reaction is initiated by adding 12.5 mL kinase assay buffer containing ATP and His6-S6K to give a final reaction volume of 25 mL containing 800 ng/mL FLAG-TOR, […] ATP and […] His6-S6K. The reaction plate is incubated for 2 hours (linear at 1-6 hours) at room temperature with gentle shaking and then terminated by adding 25 mL Stop buffer (20 mM Hepes (pH 7.4), 20 mM EDTA, 20 mM EGTA). The DELFIA detection of the phosphorylated (Thr-389) His6-S6K is performed at room temperature using a monoclonal anti-P(T389)-p70S6K antibody (1A5, Cell Signaling) labeled with Europium-N1-ITC (Eu) (10.4 Eu per antibody, PerkinElmer). The DELFIA Assay buffer and Enhancement solution can be purchased from PerkinElmer. 45 mL of the terminated kinase reaction mixture is transferred to a MaxiSorp plate (Nunc) containing 55 mL PBS. The His6-S6K is allowed to attach for 2 hours after which the wells are aspirated and washed once with PBS. 100 mL of DELFIA Assay buffer with 40 ng/mL Eu-P(T389)-S6K antibody is added. The antibody binding is continued for 1 hour with gentle agitation. The wells are then aspirated and washed 4 times with PBS containing 0.05% Tween-20 (PBST). […] of DELFIA Enhancement solution is added to each well and the plates are read in a PerkinElmer Victor model plate reader. Data obtained is used to calculate enzymatic activity and enzyme inhibition by potential inhibitors.
# [6] = test system: DU145 (human prostate carcinoma/lymphocytic leukemia); test: Cell proliferation (MTS) assay, DU145; assay type: cell-based; conditions: Homo sapiens, DU-145, 72 h, three days treatment
# Method: as §1, §2
# [7] = test system: T2, PI3K; test: Fluorescence polarization assay for PI3K; assay type: biochemical; conditions: Table 2
# T2 construct: PI3K FP IC50
# Method: This assay is used to determine the IC50 of compounds of the present invention as it identifies inhibitors of PI3 kinase by measuring inhibition.
# The assay is run by placing 5 μL of diluted enzyme per well, then 5 μL of diluted compound (or 9.5 μL enzyme then 0.5 μL compound in DMSO) is added and mixed. Then, 10 μL substrate is added to start the reaction. The samples are incubated 30-60 minutes, then the reaction is stopped by adding 20 μL stop/detector mix.
# PI3K is diluted with reaction buffer (e.g., 5 μL or 7.5 μL PI3K into 620 μL reaction buffer), and 5 μL of diluted enzyme is used per well. 5 μL reaction buffer or drug diluted in buffer (e.g., 4 μL/100 so final DMSO is 1% in reaction) is added to each. The samples are mixed by pipetting up and down. Alternatively, the enzyme can be diluted to 1215 μL. In this case 9.8 μL is added per well and 0.2 μL compound is added in DMSO.
# To prepare 1 mL of substrate solution, 955 μL reaction buffer, 40 μL PIP2, and 2.5 μL ATP are mixed. 10 μL of substrate is added to each well to start the reaction.
# Stop/detector mix is prepared by mixing 4 μL Red detector and 1.6 μL or 2.0 μL GST-GRP with 1 mL Stop buffer, which results in 10 nM probe and 70 nM GST-GRP). 20 μL of the stop/detector mix is added to each well to stop the reaction. The plates are read after 30-90 minutes keeping the red probe solutions dark.
# For the zero time point, stop/detector mix is added to the enzyme just before adding substrate. For an extra control, stop/detector mix is added to buffer (no enzyme) and substrate or to just buffer (no substrate).
# The recommended reaction has 0.06 μL per 20 μL (0.015 μg/20 μL) or 0.01125 μg/15 μL or 0.75 μg/mL.
# Plates are read on machines with filters for Tamra. The units are mP with no enzyme controls reading app 190-220 mP units. Fully active enzyme reduces fluorescence polarization down to 70-100 mP after 30 minutes. An active cpd raises the mP values halfway to control or to 120-150 mP units.
Structure (SMILES),IC50 ([1]; Table 1) [mg/L],IC50 ([2]; Table 1) [mg/L],IC50 ([3]; Table 1) [mg/L],IC50 ([4]; Table 1) [mg/L],IC50 ([5]; Table 1) [µM],IC50 ([6]; Table 1) [mg/L],IC50 ([1]; Table 2) [mg/L],IC50 ([3]; Table 2) [mg/L],IC50 ([4]; Table 2) [mg/L],IC50 ([5]; Table 2) [µM],IC50 ([6]; Table 2) [mg/L],IC50 [7] [µM],IC50 ([2]; Table 2) [mg/L]
"COC[C@H]1OC(=O)/C(=C/N(C)C2CCCCC2)C2=C(O)C(=O)C3=C([C@H](OC(C)=O)C[C@@]4(C)C3CC[C@@H]4O)[C@]21C (stereo partly drawn) [Compound 9, (1E,4S,4aR,5R,6aS,7S)-1-{[cyclohexyl(methyl)amino]methylene}-7,11-dihydroxy-4-(methoxymethyl)-4a,6a-dimethyl-2,10-dioxo-1,2,4,4a,5,6,6a,7,8,9,9a,10-dodecahydroindeno[4,5-h]isochromen-5-yl acetate]",9.5,> 0.1,15,10,86.5,13,–,–,–,–,–,–,–
"COC[C@H]1OC(=O)/C(=C/N2CCN(Cc3ccccc3)CC2)C2=C(O)C(=O)C3=C([C@H](OC(C)=O)C[C@@]4(C)C3CC[C@@H]4O)[C@]21C (stereo partly drawn) [Compound 10, (1E,4S,4aR,5R,6aS,7S)-1-[(4-benzylpiperazin-1-yl)methylene]-7,11-dihydroxy-4-(methoxymethyl)-4a,6a-dimethyl-2,10-dioxo-1,2,4,4a,5,6,6a,7,8,9,9a,10-dodecahydroindeno[4,5-h]isochromen-5-yl acetate]",1,0.02,> 15,1.8,0.89,15,–,–,–,–,–,–,–
"COC[C@H]1OC(=O)/C(=C/N2CCCCC2)C2=C(O)C(=O)C3=C([C@H](OC(C)=O)C[C@@]4(C)C3CC[C@@H]4O)[C@]21C (stereo partly drawn) [Compound 11, (1E,4S,4aR,5R,6aS,7S)-7,11-dihydroxy-4-(methoxymethyl)-4a,6a-dimethyl-2,10-dioxo-1-(piperidin-1-ylmethylene)-1,2,4,4a,5,6,6a,7,8,9,9a,10-dodecahydroindeno[4,5-h]isochromen-5-yl acetate]",0.8,0.02,> 15,1.8,1.9,15,–,–,–,–,–,–,–
"COC[C@H]1OC(=O)/C(=C/N2CCc3ccccc3C2)C2=C(O)C(=O)C3=C([C@H](OC(C)=O)C[C@@]4(C)C3CC[C@@H]4O)[C@]21C (stereo partly drawn) [Compound 12, (1E,4S,4aR,5R,6aS,7S)-1-(3,4-dihydroisoquinolin-2(1H)-ylmethylene)-7,11-dihydroxy-4-(methoxymethyl)-4a,6a-dimethyl-2,10-dioxo-1,2,4,4a,5,6,6a,7,8,9,9a,10-dodecahydroindeno[4,5-h]isochromen-5-yl acetate]",2.8,0.1,> 15,6,3.19,> 15,–,–,–,–,–,–,–
"COC[C@H]1OC(=O)/C(=C/N2CCN(c3ccccc3)CC2)C2=C(O)C(=O)C3=C([C@H](OC(C)=O)C[C@@]4(C)C3CC[C@@H]4O)[C@]21C (stereo partly drawn) [Compound 13, (1E,4S,4aR,5R,6aS,7S)-7,11-dihydroxy-4-(methoxymethyl)-4a,6a-dimethyl-2,10-dioxo-1-[(4-phenylpiperazin-1-yl)methylene]-1,2,4,4a,5,6,6a,7,8,9,9a,10-dodecahydroindeno[4,5-h]isochromen-5-yl acetate]",0.8,0.05,> 15,2,0.607,15,0.33,13,3.5,0.776,17,–,–
"COC[C@H]1OC(=O)/C(=C/N2CCN(C)CC2)C2=C(O)C(=O)C3=C([C@H](OC(C)=O)C[C@@]4(C)C3CC[C@@H]4O)[C@]21C (stereo partly drawn) [Compound 14, (1E,4S,4aR,5R,6aS,7S)-7,11-dihydroxy-4-(methoxymethyl)-4a,6a-dimethyl-1-[(4-methylpiperazin-1-yl)methylene]-2,10-dioxo-1,2,4,4a,5,6,6a,7,8,9,9a,10-dodecahydroindeno[4,5-h]isochromen-5-yl acetate]",0.58,0.02,> 15,2,0.829,15,–,–,–,–,–,–,–
"COC[C@H]1OC(=O)/C(=C/N2CCC(c3ccccc3)CC2)C2=C(O)C(=O)C3=C([C@H](OC(C)=O)C[C@@]4(C)C3CC[C@@H]4O)[C@]21C (stereo partly drawn) [Compound 15, (1E,4S,4aR,5R,6aS,7S)-7,11-dihydroxy-4-(methoxymethyl)-4a,6a-dimethyl-2,10-dioxo-1-[(4-phenylpiperidin-1-yl)methylene]-1,2,4,4a,5,6,6a,7,8,9,9a,10-dodecahydroindeno[4,5-h]isochromen-5-yl acetate]",0.9,0.02,> 15,2.3,2.45,15,–,–,–,–,–,–,–
"CCN(/C=C1/C(=O)O[C@H](COC)[C@@]2(C)C1=C(O)C(=O)C1=C2[C@H](O)C[C@]2(C)[C@@H](O)CC[C@@H]12)CC [Compound 50, (1E,4S,4aR,5R,6aS,7S,9aR)-1-[(diethylamino)methylene]-5,7,11-trihydroxy-4-(methoxymethyl)-4a,6a-dimethyl-4a,5,6,6a,7,8,9,9a-octahydroindeno[4,5-h]isochromene-2,10(1H,4H)-dione]",–,–,–,–,–,–,0.25,–,2.5,–,–,7.58,> 0.1
